Results on 6 compounds are retold here after patent publication US20250041429A1, “COMPOUND HAVING BTK PROTEIN DEGRADATION ACTIVITY, AND MEDICAL USES THEREOF” (UBIX THERAPEUTICS, INC., priority 2021, published 2025).

For the assay, the target named is T1, BTK protein (Homo sapiens, UniProt Q06187).
T1 construct: endogenous in cells; host or cells: TMD-8 cells
Put plainly: Measurement of BTK protein degradation ability in TMD-8 cells (Western blotting). Type of assay: cell-based. The settings on record: harvested after 24 hours; for BTK degradation (%) 1 nM: compound 1 nM; for BTK degradation (%) 10 nM: compound 10 nM; for BTK degradation (%) 100 nM: compound 100 nM. The procedure:
TMD-8, RAMOS, or 293T BTK MUT (C481S) cells were treated with the synthesized compounds, and then the amount of BTK protein present in the cells was measured using Western blotting detection. The protocol for the experiment conducted using TMD-8 cells was as follows:
[Culture] TMD-8 cells were resuspended in RPMI1640 MEDIUM (Hyclone, SH30027.01), 10% FBS (Hyclone, SV30207.02), and 1% Penicillin-streptomycin (Welgene, LS 202-02) media, and 1 mL of this suspension was seeded in a 12-well plate at a cell concentration of 1×10^6/mL.
[Compound treatment] The 12-well plate was treated as follows: The 10 mM stock was serially diluted 1/10 with DMSO (3 μL+27 μL DMSO), and cells were treated with compounds at final concentrations of 0.1, 1, 10 μM or 0.0001, 0.001, 0.01, 0.1 μM, and harvested after 24 hours. In the negative control group, DMSO diluted 1/10 was added to the media. (3 μL DMSO+27 μL media)
[Harvest] Each well was pipetted with a 1 mL pipette, collected in a 1.5 mL microtube, and centrifuged (500 g, 5 min, 4° C.). After removing the supernatant, it was washed with PBS and centrifuged again (500 g, 5 min, 4° C.). The supernatant was removed and the pellet was collected.
[Cell lysis and Sample preparation] lysis buffer was prepared as follows: RIPA buffer (Biosesang, RC2038-050-00), 0.5 mM PMSF (SIGMA, P7626) and 1× Protease/Phosphatase Inhibitor (Cell signaling, 5872S) were added at 60-70 μL per well and left on ice for 30 minutes. (Vortexing at 0 and 30 minutes, respectively), followed by sonication (10 seconds pulse, 30 seconds rest, 5 cycles, 70% amplification) and centrifuge (15000 g, 15 min, 4° C.). Only the supernatant was collected and transferred to a new microtube. The samples were diluted by ½ with RIPA buffer in a 96-well plate. 200 μL of the mixture A:B=50:1 of the BCA Protein Assay Kit (iNtRON, 21071) was added each, stayed at 37° C. for 30 minutes, and cooled for 10 minutes. Afterwards, absorbance was measured at 562 nm using BioTek's SYNERGY H1 microplate reader. After making a sample by quantifying the protein using the measured value, it was boiled at 70° C. for 10 minutes. The sample buffer used at this time was a mixture of NuPAGE or Bolt 4× sample buffer (Invitrogen) and each 10× sample reducing agent according to the gel to be used. RIPA buffer was used for protein dilution.
[Western blotting detection method] The same amount of sample was loaded on NuPAGE or Bolt Bis-tris 4-12% gradient gel and run (200 V, 35 minutes). It was transferred to a […] NC membrane using Trans-blot Turbo (BIO-RAD) (1.3 A constant, 25 V limit, 15 minutes). For blocking, skim milk or Intercept Blocking Buffer (LI-COR, 927-60001): 0.1% TBST=1:1 was used at room temperature for 1 hour. Anti BTK Rabbit (1:1,000 in 5% skim milk/0.2% TBST, size: 77 kDa, Cell signaling Technology) was reacted at 4° C. for 16 hours or at room temperature for 2 hours. Anti GAPDH Rabbit (1:10,000 in 5% BSA/0.2% TBST, size: 36 kDa, GENETEX) and Anti β-actin mouse (1:10,000 in 5% BSA/0.2% TBST, RT, size: 43 kDa, GENETEX) were reacted at room temperature for 1 hour or 3 hours. The samples were washed 3 times with 0.5% TBST for 5 minutes each. Secondary antibodies, Anti-Rabbit IgG (1:5,000 in 5% Skim milk/TBST, CST), IRDye® 800CW Goat anti-Rabbit IgG Secondary Antibody (1:10,000 in 5% skim/TBST, RT 45 min), IRDye® 680RD Goat anti-Mouse IgG Secondary Antibody (1:10,000 in 5% skim/TBST, RT 45 min) were added depending on each sample and reacted for 45 minutes on a rocker at room temperature. The samples were washed 5 times with 0.5% TBST for 5 minutes each and detected with LI-COR's Odyssey. At this time, BTK was detected using SuperSignal West Pico PLUS Chemiluminescent Substrate or SuperSignal West femto Maximum Sensitivity Substrate, and house-keeping genes were detected as is.

T1 sequence (Q06187 whole entry): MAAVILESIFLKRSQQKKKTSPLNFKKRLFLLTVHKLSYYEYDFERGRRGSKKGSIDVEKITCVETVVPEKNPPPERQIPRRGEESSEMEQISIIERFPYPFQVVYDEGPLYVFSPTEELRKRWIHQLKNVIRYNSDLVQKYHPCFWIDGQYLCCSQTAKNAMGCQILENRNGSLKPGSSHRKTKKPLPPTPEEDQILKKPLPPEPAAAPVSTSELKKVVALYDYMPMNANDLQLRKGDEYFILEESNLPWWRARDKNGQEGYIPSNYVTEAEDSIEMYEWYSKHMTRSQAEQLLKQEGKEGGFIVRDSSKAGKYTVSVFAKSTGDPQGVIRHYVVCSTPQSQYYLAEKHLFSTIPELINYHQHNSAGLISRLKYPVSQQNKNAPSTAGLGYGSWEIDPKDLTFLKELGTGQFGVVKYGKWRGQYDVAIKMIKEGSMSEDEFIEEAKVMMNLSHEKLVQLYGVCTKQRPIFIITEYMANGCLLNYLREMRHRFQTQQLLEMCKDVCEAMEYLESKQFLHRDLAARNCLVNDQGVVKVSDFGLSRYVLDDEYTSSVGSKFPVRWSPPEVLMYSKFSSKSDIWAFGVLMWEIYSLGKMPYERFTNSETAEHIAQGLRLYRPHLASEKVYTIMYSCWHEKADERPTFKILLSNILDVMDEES

In the case of `Cc1cc(-c2ccnc(Nc3ccc(N4CCN(CC5CCN(c6cc7c(cc6F)C(=O)N(C6CCC(=O)NC6=O)C7=O)CC5)CC4)cc3)n2)ccc1CNC(=O)N1CC(OC(C)C)C1` (stereo not drawn) [Example 12, N-(4-(2-((4-(4-((1-(2-(2,6-dioxopiperidin-3-yl)-6-fluoro-1,3-dioxoisoindolin-5-yl)piperidin-4-yl)methyl)piperazin-1-yl)phenyl)amino)pyrimidin-4-yl)-2-methylbenzyl)-3-isopropoxyazetidine-1-carboxamide], the “BTK degradation (%) 1 nM” value is on record as 23.5%, the “BTK degradation (%) 10 nM” value came to 84.5% and the “BTK degradation (%) 100 nM” value worked out at 98.5%.

With `Cc1cc(-c2ccnc(Nc3ccc(N4CCN(CC5CN(c6cc7c(cc6F)C(=O)N(C6CCC(=O)NC6=O)C7=O)C5)CC4)cc3)n2)ccc1CNC(=O)N1CC(OC(C)C)C1` (stereo not drawn) [Example 13, N-(4-(2-((4-(4-((1-(2-(2,6-dioxopiperidin-3-yl)-6-fluoro-1,3-dioxoisoindolin-5-yl)azetidin-3-yl)methyl)piperazin-1-yl)phenyl)amino)pyrimidin-4-yl)-2-methylbenzyl)-3-isopropoxyazetidine-1-carboxamide], the “BTK degradation (%) 1 nM” value is recorded as 38%, the “BTK degradation (%) 10 nM” value was 91% and the “BTK degradation (%) 100 nM” value is listed as 99%.

Take `Cc1cc(-c2ccnc(Nc3ccc(N4CCN(CC5(C)CN(c6ccc7c(c6)C(=O)N(C6CCC(=O)NC6=O)C7=O)C5)CC4)cc3)n2)ccc1CNC(=O)N1CC(OC(C)C)C1` (stereo not drawn) [Example 14, N-(4-(2-((4-(4-((1-(2-(2,6-dioxopiperidin-3-yl)-1,3-dioxoisoindolin-5-yl)-3-methylazetidin-3-yl)methyl)piperazin-1-yl)phenyl)amino)pyrimidin-4-yl)-2-methylbenzyl)-3-isopropoxyazetidine-1-carboxamide]: the “BTK degradation (%) 1 nM” value was 20%, the “BTK degradation (%) 10 nM” value turned out to be 85.5% and the “BTK degradation (%) 100 nM” value came out at 98%.

On to `Cc1cc(-c2ccnc(Nc3ccc(C4CCN(CC5CCN(c6ccc7c(c6)C(=O)N(C6CCC(=O)NC6=O)C7=O)CC5)CC4)cc3)n2)ccc1CNC(=O)N1CC(OC(C)C)C1` (stereo not drawn) [Example 15, N-(4-(2-((4-(1-((1-(2-(2,6-dioxopiperidin-3-yl)-1,3-dioxoisoindolin-5-yl)piperidin-4-yl)methyl)piperidin-4-yl)phenyl)amino)pyrimidin-4-yl)-2-methylbenzyl)-3-isopropoxyazetidine-1-carboxamide], for which the “BTK degradation (%) 1 nM” value was found to be 56.5%, the “BTK degradation (%) 10 nM” value was determined as 95.5% and the “BTK degradation (%) 100 nM” value is 99%.

On to `Cc1cc(-c2ccnc(Nc3ccc(C4CCN(CC5CN(c6ccc7c(c6)C(=O)N(C6CCC(=O)NC6=O)C7=O)C5)CC4)cc3)n2)ccc1CNC(=O)N1CC(OC(C)C)C1` (stereo not drawn) [Example 16, N-(4-(2-((4-(1-((1-(2-(2,6-dioxopiperidin-3-yl)-1,3-dioxoisoindolin-5-yl)azetidin-3-yl)methyl)piperidin-4-yl)phenyl)amino)pyrimidin-4-yl)-2-methylbenzyl)-3-isopropoxyazetidine-1-carboxamide], for which the “BTK degradation (%) 1 nM” value is 59%, the “BTK degradation (%) 10 nM” value worked out at 93% and the “BTK degradation (%) 100 nM” value came to 98.5%.

For `Cc1cc(-c2ccnc(Nc3ccc(N4CCN(CC5CCN(c6ccc7c(c6)C(=O)N(C6CCC(=O)NC6=O)C7=O)CC5)CC4)nc3)n2)ccc1CNC(=O)N1CC(OC(C)C)C1` (stereo not drawn) [Example 17, N-(4-(2-((6-(4-((1-(2-(2,6-dioxopiperidin-3-yl)-1,3-dioxoisoindolin-5-yl)piperidin-4-yl)methyl)piperazin-1-yl)pyridin-3-yl)amino)pyrimidin-4-yl)-2-methylbenzyl)-3-isopropoxyazetidine-1-carboxamide], the “BTK degradation (%) 1 nM” value stood at 37%, the “BTK degradation (%) 10 nM” value is reported as 91% and the “BTK degradation (%) 100 nM” value was determined as 98%.
